Measured values taken from the supplement of paper PMC13207355.
Structures can show the parent of a compound that is named as a salt.

Columns and labels:
Conditions in all cases: exposure time: 72 h
E13 [1] = patient-derived glioblastoma stem cells of classical subtype; assay: surviving fraction (nuclei count normalised to DMSO); higher = more cells surviving (less toxic)
E21 [2] = patient-derived glioblastoma stem cells of mesenchymal subtype; assay: as above
E28 [3] = patient-derived glioblastoma stem cells of classical subtype; assay: as above
E31 [4] = patient-derived glioblastoma stem cells of proneural subtype; assay: as above
E34 [5] = patient-derived glioblastoma stem cells of proneural subtype; assay: as above
E57 [6] = patient-derived glioblastoma stem cells of mesenchymal subtype; assay: as above
FT3469 [7] = normal neural stem cell line; assay: as above
E13 [8] = assay: phenotypic distance (Euclidean, principal components) from DMSO controls (arbitrary units); higher = stronger morphological change
E21 [9] = assay: as above
E28 [10] = assay: as above
E31 [11] = assay: as above
E34 [12] = assay: as above
E57 [13] = assay: as above
FT3469 [14] = assay: as above
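Wherever phenotypic distance (Euclidean, principal components) from DMSO controls is given: cell Painting imaging in 384-well plates, CellProfiler features reduced to at least 20 principal components, Euclidean distance versus same-plate DMSO vehicle wells (0.1% v/v), median over six images per well.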
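Wherever surviving fraction (nuclei count normalised to DMSO) is given: nuclei counted by high-content imaging of Hoechst-stained cells in laminin-coated 384-well plates, relative to 0.1% DMSO vehicle wells, with staurosporine as cell-death control.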

CC(NCCC(c1ccccc1)c1ccccc1)c1ccccc1 (stereo not drawn) [Fendiline hydrochloride]
Conditions | phenotypic distance | surviving fraction
E13 [1], 4.1 nM | – | 0.853
E13 [1], 12.3 nM | – | 0.993
E13 [1], 37 nM | – | 0.984
E13 [1], 111.1 nM | – | 0.898
E13 [1], 333.3 nM | – | 1.03
E13 [1], 1000 nM | – | 1.1
E13 [1], 3000 nM | – | 0.976
E13 [8], 4.1 nM | 1.49 | –
E13 [8], 12.3 nM | 0.566 | –
E13 [8], 37 nM | 0.415 | –
E13 [8], 111.1 nM | 1.15 | –
E13 [8], 333.3 nM | 0.412 | –
E13 [8], 1000 nM | 0.615 | –
E13 [8], 3000 nM | 1.21 | –
E21 [2], 4.1 nM | – | 1.03
E21 [2], 12.3 nM | – | 0.876
E21 [2], 37 nM | – | 0.962
E21 [2], 111.1 nM | – | 0.95
E21 [2], 333.3 nM | – | 1.01
E21 [2], 1000 nM | – | 0.962
E21 [2], 3000 nM | – | 0.961
E21 [9], 4.1 nM | 0.402 | –
E21 [9], 12.3 nM | 0.709 | –
E21 [9], 37 nM | 0.475 | –
E21 [9], 111.1 nM | 0.445 | –
E21 [9], 333.3 nM | 0.634 | –
E21 [9], 1000 nM | 0.668 | –
E21 [9], 3000 nM | 0.648 | –
E28 [3], 4.1 nM | – | 0.897
E28 [3], 12.3 nM | – | 1.08
E28 [3], 37 nM | – | 0.956
E28 [3], 111.1 nM | – | 1.12
E28 [3], 333.3 nM | – | 0.967
E28 [3], 1000 nM | – | 1.08
E28 [3], 3000 nM | – | 1.04
E28 [10], 4.1 nM | 0.507 | –
E28 [10], 12.3 nM | 0.605 | –
E28 [10], 37 nM | 0.415 | –
E28 [10], 111.1 nM | 0.773 | –
E28 [10], 333.3 nM | 0.762 | –
E28 [10], 1000 nM | 0.645 | –
E28 [10], 3000 nM | 0.861 | –
E31 [4], 4.1 nM | – | 1.09
E31 [4], 12.3 nM | – | 0.954
E31 [4], 37 nM | – | 0.955
E31 [4], 111.1 nM | – | 1.02
E31 [4], 333.3 nM | – | 0.968
E31 [4], 1000 nM | – | 0.988
E31 [4], 3000 nM | – | 1.15
E31 [11], 4.1 nM | 0.374 | –
E31 [11], 12.3 nM | 0.903 | –
E31 [11], 37 nM | 0.419 | –
E31 [11], 111.1 nM | 0.715 | –
E31 [11], 333.3 nM | 0.436 | –
E31 [11], 1000 nM | 0.581 | –
E31 [11], 3000 nM | 1.24 | –
E34 [5], 4.1 nM | – | 1.02
E34 [5], 12.3 nM | – | 0.952
E34 [5], 37 nM | – | 0.969
E34 [5], 111.1 nM | – | 0.959
E34 [5], 333.3 nM | – | 1.07
E34 [5], 1000 nM | – | 0.954
E34 [5], 3000 nM | – | 1.09
E34 [12], 4.1 nM | 0.542 | –
E34 [12], 12.3 nM | 0.85 | –
E34 [12], 37 nM | 0.586 | –
E34 [12], 111.1 nM | 0.878 | –
E34 [12], 333.3 nM | 0.354 | –
E34 [12], 1000 nM | 0.817 | –
E34 [12], 3000 nM | 0.823 | –
E57 [6], 4.1 nM | – | 0.982
E57 [6], 12.3 nM | – | 1.03
E57 [6], 37 nM | – | 1.01
E57 [6], 111.1 nM | – | 1.08
E57 [6], 333.3 nM | – | 1.07
E57 [6], 1000 nM | – | 1.04
E57 [6], 3000 nM | – | 1.09
E57 [13], 4.1 nM | 0.595 | –
E57 [13], 12.3 nM | 0.626 | –
E57 [13], 37 nM | 0.661 | –
E57 [13], 111.1 nM | 0.669 | –
E57 [13], 333.3 nM | 0.423 | –
E57 [13], 1000 nM | 0.376 | –
E57 [13], 3000 nM | 0.679 | –
FT3469 [7], 4.1 nM | – | 0.944
FT3469 [7], 12.3 nM | – | 0.918
FT3469 [7], 37 nM | – | 0.939
FT3469 [7], 111.1 nM | – | 1.11
FT3469 [7], 333.3 nM | – | 0.92
FT3469 [7], 1000 nM | – | 1.28
FT3469 [7], 3000 nM | – | 0.989
FT3469 [14], 4.1 nM | 0.761 | –
FT3469 [14], 12.3 nM | 0.264 | –
FT3469 [14], 37 nM | 0.282 | –
FT3469 [14], 111.1 nM | 0.794 | –
FT3469 [14], 333.3 nM | 0.524 | –
FT3469 [14], 1000 nM | 1.26 | –
FT3469 [14], 3000 nM | 0.835 | –
